Reference: patent US12391677B2, “Thyroid hormone receptor agonists” (INVENTISBIO CO., LTD., priority 2018, dated 2025)
pEC50: −log10 of the molar value. Marks after values point to notes of the source that are not given here.

How the values were obtained:
[1] = Human hepatocyte clearance study; format: in vitro ADME
Experimental: The in vitro human hepatocyte clearance of compounds described here was studied using pooled human hepatocytes purchased from BioreclamationIVT (Westbury, NY, Cat # X008001, Lot # TQJ). The assay was conducted according to manufacturer's instruction. Briefly, 10 mM stock solutions of test compounds and positive control (Verapamil) were prepared in 100% DMSO. […] Incubation media is made of Williams E medium supplemented with 1×GlutaMax. Both thawing medium and incubation medium (serum-free) were placed in a 37° C. water bath for at least 15 minutes prior to use. […] Verapamil was use as a positive control in the assay. Vials of cryopreserved hepatocytes were removed from storage and thawed in a 37° C. water bath with gentle shaking. Contents of the vial were poured into the 50 mL thawing medium conical tube. Vials were centrifuged at 100 g for 10 minutes at room temperature. […] Hepatocyte viability and density were counted using a Trypan Blue exclusion, and then cells were diluted with serum-free incubation medium to a working cell density of 0.5×10^6 viable cells/mL. Then, a portion of the hepatocytes at 0.5×10^6 viable cells/mL was boiled for 5 minutes prior to adding to the plate as negative control to eliminate the enzymatic activity so that little or no substrate turnover should be observed. The boiled hepatocytes were used to prepare negative samples. Aliquots of 198 μL hepatocytes were dispensed into each well of a 96-well non-coated plate. The plate was placed in the incubator on an orbital shaker at 500 rpm for approximately 10 minutes. […] This assay was performed in duplicate. The plate was incubated in the incubator on an orbital shaker at 500 rpm for the designated time points. Twenty-five microliter of contents were transferred and mixed with 6 volumes (150 μL) of cold acetonitrile with IS (200 nM imipramine, 200 nM labetalol and 200 nM diclofenac) to terminate the reaction at time points of 0, 15, 30, 60, 90 and 120 minutes. […] For data analysis, all calculations were carried out using Microsoft Excel. Peak areas were determined from extracted ion chromatograms. The in vitro half-life (t1/2) of parent compound was determined by regression analysis of the percent parent disappearance vs. time curve. […] Conversion of the in vitro t1/2 (in minutes) into the scale-up unbound intrinsic clearance (scaled-up unbound CLint, in mL/min/kg) was done using the following equation (mean of duplicate determinations): Scaled-up unbound CLint=kV/N×scaling factor, where V=incubation volume (0.5 mL); N=number of hepatocytes per well (0.25×10^6 cells).

[2] = molecular target: TRβ-GAL4 binding domain chimeric receptors (Homo sapiens (Human), UniProt P10828); experiment: Thyroid hormone receptor cell assay (GAL4 luciferase reporter in HEK293-LUC cells); format: cell-based
Sequence of TRβ-GAL4 binding domain chimeric receptors (P10828 217-461, stated change not applied): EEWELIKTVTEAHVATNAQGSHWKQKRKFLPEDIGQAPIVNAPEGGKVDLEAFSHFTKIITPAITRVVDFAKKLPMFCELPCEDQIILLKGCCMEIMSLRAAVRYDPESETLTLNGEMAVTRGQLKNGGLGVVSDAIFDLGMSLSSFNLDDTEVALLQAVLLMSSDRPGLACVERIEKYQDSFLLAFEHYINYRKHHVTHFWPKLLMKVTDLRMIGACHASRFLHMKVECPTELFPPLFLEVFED
Text: TRα-LBD or TRβ-LBD, coding sequence was inserted into pBIND expression vector (Promega, E1581) to express TRβ-GAL4 binding domain chimeric receptors. This expression vector was transfected into HEK293-LUC host cells with reporter vector (pGL4.35 which carry a stably integrated GAL4 promoter driven luciferase reporter gene). Upon agonist binding to the corresponding TRa-GAL4 or TRb-GAL4 chimeric receptor, the chimeric receptor binds to the GAL4 binding sites and stimulates the reporter gene.
Seed 2.5×10^6 HEK293-LUC cells into a 60 mm dish and incubated for 16 h at 37° C. under 5% CO2 atmosphere. Mix 12 microliters of Lipo LTX reagent in 250 microliters of Opti-MEM Medium by inversion. Mix 6 ug of DNA in 250 uL of Opti-MEM medium, then add 6 uL of Lipo PLUS Reagent. Add diluted DNA to each tube of diluted Lipo LTX Reagent (1:1 ratio), and mix by Pipettor and incubate at room temperature for 10 min. The reagent mixture was added to a 60 mm dish, incubated with cells for 4-7 h at 37 degrees under 5% CO2 atmosphere.
75 nL compound was added into 384 well assay plate using ECHO550 and then add HEK293-LUC cells (transfected, 17,000 cells/well) into the plate using phenol red-free DMEM containing 5% charcoal/dextran-treated FBS and incubated for 16-20 h at […] under 5% CO2 atmosphere. Add 25 uL of Steady-Glo Luciferase Assay Reagent into each well. Shake for 5 min and then record the luminescence value on Envision 2104 plate reader.

[3] = molecular target: ligand binding domain of thyroid hormone receptor alpha (Homo sapiens (Human), UniProt P10827); experiment: Thyroid hormone receptor TR-FRET binding assay (TRα LBD); settings: TRα LBD 4 nM
Sequence of ligand binding domain of thyroid hormone receptor alpha (P10827 other isoform, or with tags, fused parts or gaps del 1-162, other chains not shown): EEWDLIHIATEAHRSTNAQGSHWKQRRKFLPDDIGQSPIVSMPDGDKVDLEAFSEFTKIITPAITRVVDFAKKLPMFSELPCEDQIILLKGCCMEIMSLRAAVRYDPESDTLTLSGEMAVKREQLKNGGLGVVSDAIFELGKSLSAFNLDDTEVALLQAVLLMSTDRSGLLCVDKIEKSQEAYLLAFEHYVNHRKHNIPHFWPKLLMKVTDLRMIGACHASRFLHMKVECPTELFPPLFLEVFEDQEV
Experimental: (§1) TR-FRET binding assay was used to test representative compounds herein.
(§2) The ligand binding domain of thyroid hormone receptor alpha and the ligand binding domain of thyroid hormone receptor beta with GST tag were purchased from Invitrogen. Biotin-SRC2-2 coactivator peptide was purchased from Sangon Biotech, Europium anti-GST and Streptavidin-D2 was from Cisbio.
(§3) Five microliters of 4× compound serial dilution was added in the 384-well plate, white, low volume, round-bottom assay plate. […] Centrifuge the assay plates at 1000 g for 1 min and incubate 1 hr at RT, protected from light. […] Calculate EC50 by fitting % Activity values and log of compound concentrations to nonlinear regression (dose response—variable slope) with Graphpad 5.0.

[4] = molecular target: ligand binding domain of thyroid hormone receptor beta (Homo sapiens (Human), UniProt P10828); experiment: Thyroid hormone receptor TR-FRET binding assay (TRβ LBD); settings: TRβ LBD 2 nM
Sequence of ligand binding domain of thyroid hormone receptor beta (P10828 217-461): as the sequence (P10828 217-461, stated change not applied) above
Experimental: as §1, §2, §3

CLint scaled at 1 µM ([1]; human, hepatocytes) [mL/min/kg]	half-life at 1 µM ([1]; human, hepatocytes) [h]	hepatocyte CLint at 1 µM ([1]; human, hepatocytes) [µL/min/1e6 cells]	Human Hepatocyte Remaining Percentage @ 120 min ([1]; human, hepatocytes, 2 h, 1 µM) [%]	Human In vitro T1/2 ([1]; human, hepatocytes)	SMILES	also measured
9.5	6.18	3.73	79	–	Cc1nn(-c2cc(Cl)c(Oc3cc(C4CCC4)c(=O)[nH]n3)c(Cl)c2)c(=O)[nH]c1=O [Compound 9]	–
4	14.7	1.57	93	–	Cc1nn(-c2cc(Cl)c(Oc3cc(Cc4ccc(C#N)cc4)c(=O)[nH]n3)c(Cl)c2)c(=O)[nH]c1=O [Compound 66]	–
21.3	2.75	8.39	60	–	CC(C)c1cc(Oc2c(Cl)cc(-n3nc(C#N)c(=O)[nH]c3=O)cc2Cl)n[nH]c1=O [MGL-3196, reference compound]	–
–	–	–	–	56.77 h	Cc1nn(-c2cc(Cl)c(Oc3cc(Cc4ccccc4)c(=O)[nH]n3)c(Cl)c2)c(=O)[nH]c1=O [Compound 27]	Human Hepatocyte Remaining Percentage @ 120 min ([1]; human hepatocytes, 120 min): 100%; Human Scale-up Clint ([1]; human hepatocytes, scaling factor 2544.3): 1.04 mL/min/kg; Human In vitro Clint ([1]; human, hepatocytes): 0.41 μL/min/10^6 cells
4.53	13	1.78	94	–	N#Cc1nn(-c2cc(Cl)c(Oc3cc(C4CC4)c(=O)[nH]n3)c(C(F)(F)F)c2)c(=O)[nH]c1=O [Compound 65]	pEC50 [2]: 5.39; pEC50 [3]: 5.98; pEC50 [4]: 6.82
–	–	–	–	10.4 h	Cc1nn(-c2cc(Cl)c(Oc3cc(C(C)C)c(=O)[nH]n3)c(Cl)c2)c(=O)[nH]c1=O [Compound 35]	pEC50 [3]: 5.59; Human In vitro Clint ([1]; human, hepatocytes): 2.21 μL/min/10^6 cells; Human Scale-up Clint ([1]; human, hepatocytes): 5.63 mL/min/kg; Human Hepatocyte Remaining Percentage @ 120 min ([1]; human, hepatocytes, 2 h): 89%
–	–	–	98	∞*	N#Cc1nn(-c2cc(Br)c(Oc3cc(C4CC4)c(=O)[nH]n3)c(Br)c2)c(=O)[nH]c1=O [Compound 8]	Human In vitro Clint ([1]; human, hepatocytes, 1 µM): 0.00* μL/min/10^6 cells; Human Scale-up Clint ([1]; human, hepatocytes, 1 µM): 0.00* mL/min/kg
